Measured values taken from patent US6228886A, “Nutritional formulations containing water-miscible lipid derivatives as antibacterial agents” (Abbott Laboratories, priority 2000, dated 2001).

What was measured:
RSV [1] = conditions: carrageenan removed from the formulation; cited from earlier work
RSV [2] = assay: In vivo prevention of RSV infection in cotton rats; conditions: 1000 mg/L Carrageenan in M. Similac®
From the text: Cotton rats have been used as an RSV research animal model for about 20 years. The cotton rat has a similar pathological change in the lung to that observed in human infants when infected by RSV (Prince et al., 1978). […] It has also been observed that the intravenously-administered RSV-IgG has to reach a titer of ≥1:100 concentration to show the preventive effect (Prince et al., 1985). The same serum concentration of RSV-IgG in human infants is protective (Groothuis et al., 1993, 1995). Due to these similarities, the FDA has recommended the cotton rat as an appropriate model for RSV studies.
To have a repeatable RSV nasal and lung infection, a high RSV dose (10^4 pfu/animal) was intra-nasally inoculated to all animals. The inoculum (100 μl) consisted of 50 μl of RSV stock solution and 50 μl of test product. […] In addition, some studies were performed in an infant formula in which the intact protein was replaced with a casein hydrolysate (Alimentum®). All animals consumed the regular rodent chow diet throughout the experimental period. Four days after RSV challenge, all animals were sacrificed. Their lung and nasal tissue were isolated for determination of RSV titers. As a positive control, a 5% RSV-IgG was always used. […]

Question: Which “anti-RSV activity, previously found” value (RSV [1]) does the source give for Carrageenan here?
Answer: anti-RSV activity

Question: And the “RSV titer in Lung” value (RSV [2])?
Answer: 3.06 ± 0.16 Log10 PFU/g tissue

Question: And the “RSV titer in Nose” value (RSV [2])?
Answer: 3.78 ± 0.47 Log10 PFU/g tissue
